In patent publication US9750778B2, “Terminalia chebula and Terminalia bellirica extracts for inhibition of xanthine oxidase” (priority 2013, dated 2017):
Several values for one entry are separate records, joined by “and”; a condition that tells them apart may be missing. Equal values may be shown once. Marks after values point to notes of the source that are not given here.

How the values were obtained:
[1] = tested on: serum uric acid levels in patients with hyperuricemia; experiment: Randomized, double blind, placebo controlled clinical study on serum uric acid levels; assay type: in vivo, human; conditions: extracts 500 mg BID oral, febuxostat 40 mg OD, Mean±SD
Experimental: A randomized, double blind, placebo controlled, parallel-group study was performed to evaluate the effect of Terminalia chebula and Terminalia bellerica in comparison to Febuxostat and a placebo on serum uric acid levels in patients with hyperuricemia. The present study was a prospective, randomized, double blinded, placebo controlled trial. A total of 52 patients were enrolled to receive the study treatment in a randomized manner. The study was approved by the Institutional Ethics Committee and all the subjects gave written informed consent prior to their participation in the study. Hyperuricemia patients of either gender aged between 18 and 70 years were selected, with serum uric acid level ≧6.0 mg/dL and ≦12.0 mg/dL after having stopped all uric acid-lowering therapy for at least 10 days. Patients who were willing to comply with the requirements of the study and to give voluntary, written informed consent were enrolled into the study. Patients with a gout flare during screening or baseline visit were excluded. Patients currently using aspirin or other NSAIDS, diuretics, other medications with known urate-lowering effects were also excluded from the study. Patients with history or presence of nephrolithiasis or uncontrolled hypertension or diabetes, hepatic and renal impairment, pregnant or lactating females or secondary hyperuricemia (e.g. due to myeloproliferative disorder, or organ transplant) were excluded. After screening, all the eligible patients were randomized to either of the four treatment groups in a double blinded fashion for duration of 8 weeks, prospectively 12 weeks. Group 1—Terminalia chebula 500 mg—1 capsule of 500 mg orally twice a day (BID) after food. Group 2—Terminalia bellerica 500 mg—1 capsule of 500 mg orally twice a day (BID) after food. Group 3—Febuxostat—1 tablet of 40 mg (encapsulated in a similar capsule to that of Terminalia chebula/Terminalia bellerica/placebo capsules) once daily (OD) orally in the morning after food and an identical placebo capsule in the evening after food. […] At each visit they were evaluated for efficacy measurements and safety assessments. Serum uric acid levels were measured at baseline, end of 4 weeks, and end of 8 weeks. […] The subsequent 2 visits were scheduled at 4 weeks interval (visit 3—after 4 weeks of treatment, visit 4—after 8 weeks of treatment), vital signs, general examination; serum uric acid levels were measured. Pill count for study medication was evaluated. […] Study data is expressed as Mean±SD. Primary and secondary outcome measures were analyzed as the mean percentage reduction and absolute change in serum uric acid levels from baseline to 4 weeks, 8 weeks, and (prospectively) 12 weeks of treatment. […]

[2] = tested on: hyperuricemic patients; experiment: Safety and tolerability assessment in the clinical study; assay type: in vivo, human; conditions: 8 weeks treatment; 13 patients per group; extracts 500 mg BID, febuxostat 40 mg OD
Experimental: Secondary objective: To evaluate the safety and tolerability of Terminalia chebula and Terminalia bellerica in hyperuricemic patients.
Safety lab investigations for hematological, hepatic and renal biochemical parameters were done at baseline and at the end of the study (8 weeks) and also as and when required (in case of any adverse drug reaction (ADR)). Subjects were interviewed for the presence of ADR and the same was recorded in the case report form (CRF). Compliance to therapy was assessed by pill count method.
The subsequent 2 visits were scheduled at 4 weeks interval (visit 3—after 4 weeks of treatment, visit 4—after 8 weeks of treatment), vital signs, general examination; serum uric acid levels were measured. Pill count for study medication was evaluated. At the (prospective) conclusion of the study, Visit 5 (after 12 weeks post treatment), vital signs, general examination, serum uric acid, routine safety lab investigations will be performed. […] Adverse Effects/SAE monitoring would be done throughout the course of study. Safety lab parameters will be done before and after treatment and as and when required. […]
2. Measurements of Tolerability will be assessed at the end of 8 weeks/12 weeks as: Good—no side effects; Fair—mild to moderate side effects; and/or Poor—severe side effects and withdrawal of therapy.

[3] = tested on: xanthine oxidase (XO); experiment: Superoxide radical scavenging assay by NBT hypoxanthine/XO method; assay type: biochemical; conditions: for % Control (superoxide generation by XO): water blank = 100
Experimental: One T. chebula (TC) based extract was tested at three different dilutions of 5, 25 and 50 μg/mL, and one T. bellerica (TB) based extract was tested at the same three dilutions. Standard positive control was allopurinol (AP) tested at 1, 5 and 10 μg/mL. […] Stock solutions of test materials were prepared at 20 mg/ml in water (TB and TC) or immediately prior to the experiment. Further dilutions were made in type I sterile water and the effect of test materials on XO-mediated free radical (superoxide) generation was assessed as previously described ([…] al., 2008), using hypoxanthine/XO/NBT (tetrazolium salt) system with the reaction product (formazan) followed at 570 nm with the BioRad microplate spectrophotometer 3550-UV. Allopurinol (AP) was the positive control, double-distilled water was the negative control (blank). P values representing statistical significance were calculated using paired t-test and threshold of statistical significance was fixed at p=0.05 and at least 15% difference as compared to the water control.

[4] = tested on: COX-1; conditions: cited from earlier work
[5] = target: T1, COX-2 (Homo sapiens, UniProt P35354); conditions: cited from earlier work
T1 sequence (P35354 18-604): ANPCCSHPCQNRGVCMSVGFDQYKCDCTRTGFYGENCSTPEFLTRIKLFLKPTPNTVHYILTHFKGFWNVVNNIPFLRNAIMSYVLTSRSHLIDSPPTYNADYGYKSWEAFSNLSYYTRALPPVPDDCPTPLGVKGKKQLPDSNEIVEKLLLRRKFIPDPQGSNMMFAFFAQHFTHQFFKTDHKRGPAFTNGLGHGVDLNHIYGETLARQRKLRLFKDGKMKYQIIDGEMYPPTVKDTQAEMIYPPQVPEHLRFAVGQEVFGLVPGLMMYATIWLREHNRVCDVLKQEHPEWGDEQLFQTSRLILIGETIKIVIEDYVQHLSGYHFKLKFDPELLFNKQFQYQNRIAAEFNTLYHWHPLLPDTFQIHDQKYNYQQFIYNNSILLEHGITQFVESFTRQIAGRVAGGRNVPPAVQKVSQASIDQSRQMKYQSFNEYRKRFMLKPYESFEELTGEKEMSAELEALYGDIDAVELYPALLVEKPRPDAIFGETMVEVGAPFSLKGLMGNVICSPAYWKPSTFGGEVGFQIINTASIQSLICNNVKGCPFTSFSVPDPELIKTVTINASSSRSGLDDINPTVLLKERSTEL

[6] = tested on: 5-LOX; conditions: cited from earlier work
[7] = target: maltase; conditions: reversible and non-competitive inhibitor; read-out: K(i) value, maltase; cited from earlier work
[8] = tested on: HepG2 cells; conditions: cited from earlier work
[9] = from baseline, negative = decrease

**Q.** Which “Serum Uric Acid level at the end of 4 weeks” value ([1]; 13 patients per group) does the source give for `Cc1nc(-c2ccc(OCC(C)C)c(C#N)c2)sc1C(=O)O` [Febuxostat] here?
**A.** The value was 7.23 ± 0.72 mg/dL.

**Q.** What about the “Serum Uric Acid level at the end of 8 weeks” value ([1]; 13 patients per group) of the same compound?
**A.** The value was 6.08 ± 0.6 mg/dL.

**Q.** And the “Mean Percentage Reduction in Serum Uric Acid Level after 8 weeks” value [1, 9]?
**A.** Its value is −29.58 ± 5.74 %.

**Q.** And the “Mean Percentage Reduction in Serum Uric Acid at the end of 4 weeks” value [1, 9]?
**A.** The value was −16.31 ± 5.32*^NS %.

**Q.** And the Adverse effects reported [2]?
**A.** The Adverse effects reported was “Two patients in the Febuxostat group had elevated mildly elevated total bilirubin and 1 patient had complained of nausea and vomiting”.

**Q.** For `Oc1ncnc2[nH]ncc12` [AP, allopurinol], which “ED50 (dose required for 50% inhibition of XO)” value [3] is on record?
**A.** Its value is 6 µg/mL.

**Q.** What about the “% Control (superoxide generation by XO)” value ([3]; test material at 1 μg/ml) of the same compound?
**A.** The value was 89%.

**Q.** And the “% Control (superoxide generation by XO)” value ([3]; test material at 5 μg/ml)?
**A.** Its value is 54%.

**Q.** What about the “% Control (superoxide generation by XO)” value ([3]; test material at 10 μg/ml) of the same compound?
**A.** Its value is 43%.

**Q.** Which IC50 [4] does the source give for “beta-1-O-galloyl-2,4-chebuloyl-3,6-(R)-hexahydroxydiphenoyl-D-glucose [Chebulagic acid]” here?
**A.** The IC50 was 15 ± 0.288 µM.

**Q.** What about the IC50 [5] of the same compound?
**A.** Its IC50 is 0.92 ± 0.011 µM.

**Q.** What about the IC50 [6] of the same compound?
**A.** Its IC50 is 2.1 ± 0.057 µM.

**Q.** And the Ki [7]?
**A.** The Ki was 6.6 µM.

**Q.** And the “Enhancement of the cytotoxicity of doxorubicin” value [8]?
**A.** Its value is 20 fold.
